In assay [1] the target is T1, TK (Homo sapiens, UniProt P29401).
T1 sequence (P29401 1-623): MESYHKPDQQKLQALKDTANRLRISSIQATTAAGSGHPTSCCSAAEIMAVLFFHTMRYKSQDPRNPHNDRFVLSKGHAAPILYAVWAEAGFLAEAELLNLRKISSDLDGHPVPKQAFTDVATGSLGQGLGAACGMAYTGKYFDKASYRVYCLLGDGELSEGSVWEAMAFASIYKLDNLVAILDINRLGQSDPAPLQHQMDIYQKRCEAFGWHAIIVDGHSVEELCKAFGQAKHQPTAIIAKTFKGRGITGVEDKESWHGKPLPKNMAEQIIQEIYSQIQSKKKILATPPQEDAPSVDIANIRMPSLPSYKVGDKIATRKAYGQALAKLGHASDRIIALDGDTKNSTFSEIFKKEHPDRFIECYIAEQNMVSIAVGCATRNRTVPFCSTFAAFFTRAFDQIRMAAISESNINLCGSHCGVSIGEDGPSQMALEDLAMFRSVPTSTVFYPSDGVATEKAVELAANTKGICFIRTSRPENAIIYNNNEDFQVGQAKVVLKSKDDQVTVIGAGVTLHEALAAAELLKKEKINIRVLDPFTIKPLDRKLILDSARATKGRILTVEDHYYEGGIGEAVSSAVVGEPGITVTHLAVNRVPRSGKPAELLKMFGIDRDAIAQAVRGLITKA
Description: Cell-based TK inhibition in thiamine-depleted media, 96-well format. Also noted: endogenous in cells. As to conditions: treated cells, 48 hours treatment. The procedure: We determined the IC50 of compounds that inhibit the activity of the TPP utilizing enzymes TK, kGDH and PDH in a convenient 96-well format using an optimized version of the method described in the previous Examples.
The high thiamine levels in conventional cell culture media (e.g., DMEM (12 μM), RPMI (3 μM)) masks the inhibitory effect of such inhibitors. To measure the IC50 of such inhibitors, thus, a thiamine depleted DMEM, containing all the ingredients of normal DMEM except for thiamine (HyClone, custom order), was used. Thiamine-depleted media (TDM) is made up with thiamine-depleted DMEM, 10% FBS, which contains negligible amount of thiamine (estimated to be ˜3-5% nM) and 1% Penicillin-streptomycin.
Log-phase growing cells were trypsinized and resuspended in TDM. Optimization of the initial cell counts is recommended for each cell line to ensure that enzyme activity can be observed at the beginning and that healthy growth can continue. For cell lines that have a doubling time of approximately 24 hours and cellular transketolase levels high enough to be reliably detected with five thousand (5K) cells such as HCT116 and HT1080, 8K cells are recommended.
Media containing 8K cells (95 μl) were used to seed individual wells in a 96-well clear-bottom cell cultured treated sterile plate. […] Enzymatic inhibition was expressed as percent of control wells that were not treated with compounds. […]

The target in assay [2] is T1, TK. As to the kind of experiment: Thiamine competition and washout time course of TK inhibition in cells. Also on record: endogenous in cells; host or cells: HCT116. As to conditions: HCT116 cells, TDM, thiamine 0-12 μM, 48 hours; 12 μM thiamine overcomes inhibition. Format: cell-based. On the procedure:
HCT116 cells were plated in clear-bottomed 96-well culture plates, at a density of 8000 cells/well in TDM. The following morning, N3PT and different amounts of thiamine (12 μM, 2.4 μM, 0.48 μM, 0.096 μM, 0.0192 μM, 0 μM) were added to the cells. Forty-eight hours later, plates were inverted to remove media and blotted on paper towels to remove residual media. Plates were immediately assayed for enzymatic TK activity. 80 μl of lysis buffer was added to each well, and the cells incubated at RT for 10 min to allow cell lysis. After lysis, 20 μl of the aforementioned 5× reaction mix was added to each well to initiate the reaction. Reactions were monitored as described above.
Cells were plated in TDM media 24 hours earlier, different concentration of N3PT and 100 nM thiamine were added to the cells and treated for 48 hour to allow N3PT to exert its inhibitory effect (day 2; d2). The media was then changed to contain only 100 nM thiamine and one plate was assayed every day for the next five days (d3 to d7).

These results are taken from patent US20070292888A1, “Methods for Measuring Enzyme Activities in Cells, Blood, Tumors and Tissues” (GEN-PATH PHARMACEUTICALS, INC., priority 2004, published 2007).

The IC50 is the point on the concentration scale where inhibition reaches its midpoint. The low end stands for greater potency, the high end for weaker potency. With `Cc1ccc(C[n+]2csc(CCO)c2C)c(N)n1` [N3PT, 3-[(2-amino-6-methyl-3-pyridinyl)methyl]-5-(2-hydroxyethyl)-4-methyl thiazolium], the IC50 in assay [1] was 20 nM. In addition, in assay [2], the “Inhibition of TK in the presence of increased concentrations of thiamine” value is “reduced by thiamine in a concentration dependent manner”.
